{"source": "paper PMC12525728", "about": "“Safety, Pharmacokinetics, Translational and Molecular Mechanistic Insights on the Prostate Cancer Recurrence Suppressor Pseurotin A” (Molecules, 2025)", "system": "Swiss albino mice", "assay": "90-day daily oral dosing sub-chronic toxicity study (body weight, behavior, organ weight, histology)", "format": "in vivo", "conditions": "for Relative organ weight, Brain / Relative organ weight, Heart / Relative organ weight, Kidneys / Relative organ weight, Liver / Relative organ weight, Lungs / Relative organ weight, Spleen: mean ± SD", "protocol": "For the 90-day daily oral dosing sub-chronic toxicity study, twenty male and twenty female healthy 8-week-old Swiss albino mice were randomly selected and randomized to […] (n = 5/sex/group). Mice received free access to purified drinking water and high-fat diet (HFD) pelleted rodent chow (11.4% total fat, no. 7004, Envigo/Teklad, Madison, WI, USA) until the day before sacrifice, at which time they were fasted for 8 h and allowed only free access to drinking water. Daily doses of PsA (10, 40, 80 mg/kg body weight) were administered to the mice formulated in <5% DMSO (Mediatech Inc., Manassas, VA, USA) and <0.2% Tween 80 (Croda Inc., Princeton, NJ, USA) at a volume not exceeding 1% of body weight by metal oral gavage (2 mm diameter with stainless steel bite protector, 18-gauge, 3.81 cm long). […] The mice were observed weekly until the completion of the study. The body weights of the mice were measured in grams using a Scout^TM Pro (Ohaus Corp., Pine Brook, NJ, USA) on day 0, 4, 8, 11, 14, 21, 28, 35, 42, 49, 56, 63, 70, 77, 83, and 90 after initial treatment. On day 90, all mice were anesthetized using isoflurane (USP-vaporizer method, Matrix VIP-3000, Covetrus, Dublin, OH, USA, exposure of animals in an anesthesia chamber at 3% isoflurane vaporization rate. Exposure time 2 min). Mice were then euthanized by cervical dislocation according to the 2020 AVMA Guidelines on Euthanasia and dissected. Mice organs (brain, liver, kidney, heart, lungs, spleen) were excised and weighed for histopathological examination. The organs were stored in 10% neutral buffered formalin (Avantor Science Central, Allentown, PA, USA) for 24 h and then transferred to 70% ethanol (AAPER ALCOHOL, Shelbyville, KY, USA). This study was performed following the OECD guideline 408 for the testing of chemicals.\nThe experimental animals’ organs were carefully excised and quickly fixed in 10% neutral buffered formalin for 24 h before being transferred to 70% ethanol. The organs were embedded in paraffin before sectioning and staining with hematoxylin and eosin (H&E). All sectioning and staining were conducted at the AML Laboratories (Jacksonville, FL, USA). The paraffin-embedded tissues were sliced into 5 µm-thick sections before being mounted on a positively charged slide. The 5 µm-thick sections were then dewaxed using xylene, rinsed using 80–95% ethanol, and rehydrated using H2O. They were subsequently stained with H&E before being dehydrated again using 80–95% ethanol to xylene.\nResults for the hematological and biochemical parameters were analyzed separately by One-way Analysis of Variance (ANOVA), followed by multiple comparisons with Dunnett’s test. All statistical analyses were performed using GraphPad Prism version 8 software (San Diego, CA, USA). Data in this study were expressed as a mean ± SD (standard deviation) and mean ± SEM (standard error of mean). A probability value of <0.05 was considered statistically significant (* p < 0.05; ** p < 0.01; and *** p < 0.001).", "key": {"[1]": {"conditions": "female, 10mg/kg daily oral 90 days"}, "[2]": {"conditions": "female, 40mg/kg daily oral 90 days"}, "[3]": {"conditions": "female, 80mg/kg daily oral 90 days"}, "[4]": {"conditions": "male, 10mg/kg daily oral 90 days"}, "[5]": {"conditions": "male, 40mg/kg daily oral 90 days"}, "[6]": {"conditions": "male, 80mg/kg daily oral 90 days"}}}
{"compound": "CC/C=C\\[C@H](O)[C@H](O)C1=C(C)C(=O)[C@]2(O1)C(=O)N[C@@](OC)(C(=O)c1ccccc1)[C@@H]2O", "note": "[PsA, pseurotin A]", "values": [{"measurement": "behavioral, neuromuscular and autonomic responses", "setting": "daily oral doses over 90 days", "result": "no observable effects"}, {"measurement": "Relative organ weight, Brain", "setting": "[1]", "result": "438.5 ± 18.9"}, {"measurement": "Relative organ weight, Heart", "setting": "[1]", "result": "197.7 ± 33.5"}, {"measurement": "Relative organ weight, Kidneys", "setting": "[1]", "result": "475.9 ± 31.8"}, {"measurement": "Relative organ weight, Liver", "setting": "[1]", "result": "1218 ± 31.6"}, {"measurement": "Relative organ weight, Lungs", "setting": "[1]", "result": "211.7 ± 40.2"}, {"measurement": "Relative organ weight, Spleen", "setting": "[1]", "result": "106.3 ± 48.4"}, {"measurement": "Relative organ weight, Brain", "setting": "[2]", "result": "355.1 ± 25.2"}, {"measurement": "Relative organ weight, Heart", "setting": "[2]", "result": "186.2 ± 12.3"}, {"measurement": "Relative organ weight, Kidneys", "setting": "[2]", "result": "470.4 ± 87.8"}, {"measurement": "Relative organ weight, Liver", "setting": "[2]", "result": "1311 ± 135.7"}, {"measurement": "Relative organ weight, Lungs", "setting": "[2]", "result": "229.0 ± 37.1"}, {"measurement": "Relative organ weight, Spleen", "setting": "[2]", "result": "125.1 ± 22.6"}, {"measurement": "Relative organ weight, Brain", "setting": "[3]", "result": "376.7 ± 47.4"}, {"measurement": "Relative organ weight, Heart", "setting": "[3]", "result": "231.1 ± 24.4"}, {"measurement": "Relative organ weight, Kidneys", "setting": "[3]", "result": "461.9 ± 20.6"}, {"measurement": "Relative organ weight, Liver", "setting": "[3]", "result": "1369 ± 146.3"}, {"measurement": "Relative organ weight, Lungs", "setting": "[3]", "result": "236.9 ± 66.2"}, {"measurement": "Relative organ weight, Spleen", "setting": "[3]", "result": "109.7 ± 20.2"}, {"measurement": "average heart weight versus vehicle control", "setting": "male 10 mg/kg and 40 mg/kg groups, 90 days", "result": "significant decrease"}, {"measurement": "body weight versus vehicle control", "setting": "male and female, 10, 40, 80 mg/kg daily oral 90 days, sixteen time points", "result": "did not show any significant changes"}, {"measurement": "Relative organ weight, Heart", "setting": "[4]", "result": "248.1 ± 54.6"}, {"measurement": "Relative organ weight, Kidneys", "setting": "[4]", "result": "684.7 ± 41.0"}, {"measurement": "Relative organ weight, Liver", "setting": "[4]", "result": "1881 ± 134.3"}, {"measurement": "Relative organ weight, Lungs", "setting": "[4]", "result": "288.8 ± 62.4"}, {"measurement": "Relative organ weight, Spleen", "setting": "[4]", "result": "114.7 ± 21.4"}, {"measurement": "Relative organ weight, Brain", "setting": "[5]", "result": "413.6 ± 54.5"}, {"measurement": "Relative organ weight, Heart", "setting": "[5]", "result": "261.7 ± 25.2"}, {"measurement": "Relative organ weight, Kidneys", "setting": "[5]", "result": "747.5 ± 92.3"}, {"measurement": "Relative organ weight, Liver", "setting": "[5]", "result": "1869 ± 295.8"}, {"measurement": "Relative organ weight, Lungs", "setting": "[5]", "result": "302.1 ± 23.5"}, {"measurement": "Relative organ weight, Spleen", "setting": "[5]", "result": "118.5 ± 3.9"}, {"measurement": "Relative organ weight, Brain", "setting": "[6]", "result": "409.2 ± 28.3"}, {"measurement": "Relative organ weight, Heart", "setting": "[6]", "result": "320.8 ± 58.9"}, {"measurement": "Relative organ weight, Kidneys", "setting": "[6]", "result": "673.7 ± 50.1"}, {"measurement": "Relative organ weight, Liver", "setting": "[6]", "result": "1946 ± 272.4"}, {"measurement": "Relative organ weight, Lungs", "setting": "[6]", "result": "209.9 ± 61.0"}, {"measurement": "Relative organ weight, Spleen", "setting": "[6]", "result": "108.7 ± 12.1"}, {"measurement": "organ histology (liver, lungs, kidneys, heart, brain) versus vehicle control", "setting": "up to 80 mg/kg, 90-day dosing, H&E", "result": "no structural or morphological differences"}]}
